# Assay results published in PMC5931576, “Allosteric modulation of the farnesoid X receptor by a small molecule” (Scientific Reports, 2018).
# Columns and labels:
# FXR-LBD = test: Thermal shift assay (SYPRO Orange); assay type: binding; details: compound 100 µM alone, 5 µM FXR-LBD; mean ± SEM, n ≥ 4
# Description: Thermal shift experiments were performed in clear 96-well plates (Invitrogen) using SYPRO Orange (Invitrogen) as dye as described previously[38]. 10 μL of test compound (final concentrations: 3: 100 µM; 16: 100 µM) in assay buffer (10 mM TRIS (pH 8.3), 5 mM DTT, 0.5 mM EDTA, 100 mM NaCl) were mixed with 10 μL of FXR-LBD (final protein concentration 5 µM) in assay buffer and 5 µL of SYPRO Orange (5 × final concentration). Temperature-dependent fluorescence increase reporting protein denaturation was measured in duplicates in an ICycler (Bio-Rad Laboratories, Hercules, CA, USA) from 20 to 90 °C in steps of 0.5 °C per minute at 300 nm excitation and 570 nm emission wavelength. The first derivative of the melting curve was calculated using the Graph Pad Prism 5 software. All curves were determined at least four times in independent experiments.
# RXRα = test system: T1, RXRα; test: Gal4-DBD-RXRα-LBD hybrid reporter gene assay; assay type: cell-based, human
# T1 construct: expressed in transfected cells; host or cells: HEK293T
# Excerpt: (§1) The Gal4-fusion receptor plasmids pFA-CMV-hPPARα-LBD[34], pFA-CMV-hPPARγ-LBD[34], pFA-CMV-hPPARδ-LBD[34], pFA-CMV-hLXRα-LBD[35], pFA-CMV-hLXRβ-LBD[35], pFA-CMV-hRXRα-LBD[36], pFA-CMV-hRXRβ-LBD[36], pFA-CMV-hRXRγ-LBD[36], pFA-CMV-hRARα-LBD[36], pFA-CMV-hRARβ-LBD[36], pFA-CMV-hRARγ-LBD[36], pFA-CMV-hVDR-LBD[36] and pFA-CMV-hCAR-LBD[36] coding for the hinge region and ligand binding domain (LBD) of the canonical isoform of the respective nuclear receptor have been reported previously. pFR-Luc (Stratagene) was used as reporter plasmid and pRL-SV40 (Promega) for normalization of transfection efficiency and cell growth.
# (§2) HEK293T cells were grown in DMEM high glucose, supplemented with 10% FCS, sodium pyruvate (1 mM), penicillin (100 U/mL) and streptomycin (100 μg/mL) at 37 °C and 5% CO2. The day before transfection, HEK293T cells were seeded in 96-well plates (2.5·10^4 cells/well). Before transfection, medium was changed to Opti-MEM without supplements. Transient transfection was carried out using Lipofectamine LTX reagent (Invitrogen) according to the manufacturer’s protocol with pFR-Luc (Stratagene), pRL-SV40 (Promega) and pFA-CMV-hNR-LBD. […] Luminescence was measured with an Infinite M200 luminometer (Tecan Deutschland GmbH) or a Tecan Spark 10 M luminometer (Tecan). […]
# [1] = test system: PPARα/γ/δ, LXRα/β, RXRα/β/γ, RARα/β/γ, VDR and CAR; test: Hybrid reporter gene assays for nuclear receptors related to FXR; assay type: cell-based, human
# Excerpt: as §1, §2
# TGR5 = test system: T2, TGR5; test: TGR5 assay (Eurofins); assay type: cell-based; details: 1 and 10 µM
# T2 construct: Eurofins (Brussels, Belgium)
# c-Kit = test: Kinase inhibition assay (radiometric or HTRF); assay type: biochemical
# PDGF-Rα = test: Kinase inhibition assay (radiometric or HTRF); assay type: biochemical
# SHP mRNA = test: FXR target gene quantification (qRT-PCR) in HepG2 cells: SHP; assay type: cell-based; details: for SHP mRNA, mean fold activation compared to DMSO (0.1%): HepG2, 24 h
# [2] = Metabolism assay (liver microsomes); assay type: in vitro ADME, Sprague−Dawley rats; details: rat liver microsomes, 10 μM
# Description: In vitro biological evaluation […]
# MgCl2). After 5 min, the reaction was started by the addition of 13 μL of microsome mix from the liver of Sprague−Dawley rats (Invitrogen; 20 mg protein/mL in 0.1 M phosphate buffer) in a shaking water bath at 37 °C.
# The reaction was stopped by addition of 250 μL of ice-cold methanol at 0, 15, 30 and 60 min. The samples were diluted with 250 μL of DMSO and centrifuged at 10000 g for 5 min at 4 °C. The supernatants were analyzed and test compound was quantified by HPLC: mobile phase: MeOH 83%/H2O 17%/formic acid 0.1%; flow-rate:
# 1 mL/min; stationary phase: MultoHigh Phenyl phase, 5 μm, 250 × 4, precolumn, phenyl, 5 μm, 20 × 4; detection wavelength: 330 and 254 nm; injection volume: 50 μL. Control samples were performed to check the stability of 4 or 16 in the reaction mixture: first control was without NADPH, which is needed for the enzymatic activity of the microsomes, second control was with inactivated microsomes (incubated for 20 min at 90 °C), third control was […]
# quantified by an external calibration curve, where data are expressed as means ± SEM of single determinations […]
# obtained in three independent experiments. […]
# as mean percent of remaining compound ± SEM; n=3): 4: 0 min: 100 ± 0%, 15 min: 86 ± 3%, 30 min: 74 ± 1%,
smiles,measurement,setting,value
"CS(=O)(=O)O.CS(=O)(=O)O.CS(=O)(=O)O.CS(=O)(=O)O.Cc1ccc(NC(=O)c2ccc(Cl)cc2)cc1Nc1nccc(-c2cccnc2)n1.Cc1ccc(NC(=O)c2ccc(Cl)cc2)cc1Nc1nccc(-c2cccnc2)n1.O.O.O [compound 16, 4-Chloro-N-(4-methyl-3-(4-(pyridin-3-yl)pyrimidin-2-ylamino)phenyl)benzamide dimesylate-sesquihydrate]",Thermal shift of FXR-LBD melting point,FXR-LBD,−1.0 ± 0.0 °C
same,RXR agonistic activity (activation of RXRα-Gal4 chimera receptor),RXRα,did not activate
same,Selectivity over nuclear receptors related to FXR,[1],high selectivity
same,TGR5 modulation (agonistic or antagonistic activity),TGR5,does not modulate
same,Inhibition of c-Kit,c-Kit,potent inhibitor
same,Inhibition of PDGF-Rα,PDGF-Rα,potent inhibitor
same,CDCA-induced SHP mRNA expression compared to 1 alone,"SHP mRNA; HepG2, 16 co-incubated with 1",about 3 fold
same,"SHP mRNA, mean fold activation compared to DMSO (0.1%)",SHP mRNA; 0.3 µM alone,2.32 ± 0.18
same,"SHP mRNA, mean fold activation compared to DMSO (0.1%)",SHP mRNA; 16 (0.3 µM) + 1 (20 µM),1.64 ± 0.23
same,"SHP mRNA, mean fold activation compared to DMSO (0.1%)",SHP mRNA; 16 (0.3 µM) + 1 (50 µM),12.70 ± 1.04
same,mean percent of remaining compound,[2]; 0 min,100 ± 0%
same,mean percent of remaining compound,[2]; 15 min,92 ± 1%
same,mean percent of remaining compound,[2]; 30 min,88 ± 1%
same,mean percent of remaining compound,[2]; 60 min,86 ± 1%
